From ChEMBL document CHEMBL1201862, “PubChem BioAssay data set” (2004)
Active and inactive are the calls of the source.

Assays:
INS1 = experiment: beta cell apoptosis inhibitors, cytokine rescue, dose response, luminescence, retest (AID 449756); assay type: functional, cell-based; details: Rattus norvegicus;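 further: cell death triggered by IL-1 beta plus TNF-alpha plus IFN-gamma mixture; protective hits raise ATP signal compared with cytokine alone wells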
[1] = control 3'UTR Renilla luciferase suppression, dose response, counter-screen for Shn3 inhibitor project, cell-based, Clone20-Shn3RL, cherry-picked (AID 624133); assay type: functional
[2] = Shn3 3'UTR reporter inhibitors, dose response, cell-based, Clone20 osteoblasts, firefly luciferase, cherry-picked (AID 624132); assay type: functional;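 further: firefly luciferase luminescence from reporter carrying the Shn3 3'UTR in osteoblasts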
[3] = target: T1, COUP transcription factor 2 (Homo sapiens, UniProt P24468); experiment: Luminescence-based cell-based high throughput dose response assay to identify inhibitors of COUP-TFII (NR2F2).; assay type: functional;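 further: HEK293 cells transiently cotransfected with COUP-TFII expression vector and reporter; luciferase reporter luminescence driven by COUP-TFII from the pX2-168 reporter plasmid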
T1 sequence (P24468 whole entry): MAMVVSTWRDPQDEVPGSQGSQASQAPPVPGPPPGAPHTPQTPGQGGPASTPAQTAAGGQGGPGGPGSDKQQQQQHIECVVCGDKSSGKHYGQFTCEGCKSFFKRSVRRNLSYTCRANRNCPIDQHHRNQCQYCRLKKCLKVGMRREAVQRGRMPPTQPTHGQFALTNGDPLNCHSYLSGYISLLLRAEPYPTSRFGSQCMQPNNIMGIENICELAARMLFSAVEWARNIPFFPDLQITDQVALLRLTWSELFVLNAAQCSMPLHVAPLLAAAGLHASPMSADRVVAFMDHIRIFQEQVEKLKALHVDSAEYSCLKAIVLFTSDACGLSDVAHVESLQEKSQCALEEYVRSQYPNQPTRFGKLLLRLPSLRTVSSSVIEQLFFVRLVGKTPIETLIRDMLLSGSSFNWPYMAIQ

[4] = HepG2 cell cytotoxicity, dose response, cytotoxicity control for Shn3 inhibitor project, CellTiter-Glo, cherry-picked (AID 624134); assay type: functional, cell-based
Galanin receptor type 2 = Galanin receptor type 2 (Homo sapiens, UniProt O43603); experiment: Dose Response cell-based high-throughput screening assay to identify antagonists of galanin receptor 2 (GALR2). [Related pubchem assays: 828, 866 ]; assay type: functional
Galanin receptor type 2, sequence (O43603 whole entry): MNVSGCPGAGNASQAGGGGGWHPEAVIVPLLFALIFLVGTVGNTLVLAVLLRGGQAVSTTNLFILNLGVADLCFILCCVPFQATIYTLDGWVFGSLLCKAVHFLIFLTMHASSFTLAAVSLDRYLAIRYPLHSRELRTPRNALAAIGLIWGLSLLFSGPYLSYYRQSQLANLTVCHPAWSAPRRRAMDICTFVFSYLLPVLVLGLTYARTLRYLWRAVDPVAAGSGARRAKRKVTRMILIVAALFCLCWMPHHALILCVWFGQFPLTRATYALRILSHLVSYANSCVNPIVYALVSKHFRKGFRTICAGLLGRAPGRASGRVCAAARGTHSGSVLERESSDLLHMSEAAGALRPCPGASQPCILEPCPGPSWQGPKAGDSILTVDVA

Vero = experiment: host cell cytotoxicity of antiviral hits, dose response, cytotoxicity control for West Nile virus antiviral project, secondary assay (AID 1650); assay type: functional; details: Chlorocebus sabaeus
[5] = NIH-3T3 fibroblast cytotoxicity, dose response, cytotoxicity control, cell-based, fluorescence, Alamar Blue, secondary assay (AID 2327); assay type: functional;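 further: NIH-3T3 mouse fibroblasts cultured with fluconazole at 8 µg/mL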
[6] = THP-1 cell cytotoxicity, dose response, cytotoxicity control for non-replicating M. tuberculosis project (AID 489025); assay type: functional
cells [7] = assay type: functional
[8] = HepG2 cell cytotoxicity, dose response, cytotoxicity control for non-replicating M. tuberculosis project (AID 489018); assay type: functional; details: Mycobacterium tuberculosis
[9] = C. albicans growth with fluconazole, confirmation, fluorescence, retest (AID 2467); assay type: functional, cell-based
[10] = Vero E6 cell cytotoxicity, dose response, cytotoxicity control for non-replicating M. tuberculosis project, secondary assay (AID 492998); assay type: functional, VeroE6; details: Vero C1008
cells [11] = assay type: functional, cell-based
cells [12] = assay type: functional, cell-based; remark: listed apart in the source

CC(=O)c1c(C)[nH]c(C(=O)OCC(=O)Nc2ccc(Cl)cc2[N+](=O)[O-])c1C
AC50 (INS1): 1.98 µM (active) | AC50 [1]: 13.6 µM (active) | AC50 [2]: 0.325 µM (active) | IC50 [3]: 6.5 µM (active) | AC50 [4]: 53.2 µM (active) | IC50 (Galanin receptor type 2): > 42 µM (not active)

O=C(N/N=C(\c1ccccc1)c1ccccn1)c1cccc([N+](=O)[O-])c1
CC50 (Vero): 1.73 µM (active) | AC50 (INS1): 0.535 µM (active) | EC50 [5]: 155 µM (inconclusive) | CC50 [6]: 0.394 µM (active) | IC50 (cells [7]): 1.06 µM (active) | CC50 [8]: 6.88 µM (active) | EC50 [9]: 3.75 µM (active) | CC50 [10]: 1.61 µM (active) | EC50 (cells [11]): > 350 µM (not active) | EC50 (cells [12]): 4.64 µM (active)
